# Laboratory results taken from patent publication US6667025B2 (Mitsubishi Pharma Corporation, priority 1997, dated 2003).
# Columns and labels:
# [1] = test system: (LEW×BN)F1 recipients injected with LEW spleen cells; experiment: Lethal GvHR in cyclophosphamide-pretreated recipients; format: in vivo, rat
# Experimental: To examine the effect of FTY720 in preventing the lethal GvHR, splenic lymphocytes from LEW donor rats (1×10^8 spleen cells) were injected intravenously into cyclophosphamide-pretreated (LEW×BN)F1 recipients. Cyclophosphamide (Shionogi Co. Ltd; Osaka, Japan) was given at a 200 mg/kg dose.
# [2] = test system: lymphocytes; experiment: Numbers of lymphocytes in blood, spleen, mesenteric lymph nodes and Peyer's patches in vivo; set-up: species or system rat; conditions: 24 hours
# Experimental: FTY720 at 0.1 and 1 mg/kg were administered orally to 6 week-old male F344 rats. At 3, 12, 24 hours after administration, peripheral blood, spleen, mesenteric lymph nodes, and Peyer's patches were removed and the lymphocyte numbers of these tissues were measured by using a flow cytometer, as known in the art (EPICS XL).
# [3] = test system: IL-2 mRNA in alloantigen-stimulated splenic T cells; experiment: IL-2 mRNA expression in allogeneic mixed lymphocyte culture (PCR); format: cell-based, rat; conditions: 48 hours
# Experimental: The housekeeping gene HPRT was used as an internal control in order to compare levels of IL-2 mRNA levels relative to the HPRT mRNA levels, as detailed below.
# Allogeneic mixed lymphocyte culture was carried out by using nylon-nonadherent spleen cells of F344 rat (RT1^1v1) as responder cells and the spleen cells of WKAH rat (RT1^k) pretreated with 40 μg/ml of mitomycin C for 30 min as stimulator cells. […] After culturing for 48 hours, the cells were recovered by centrifugation. The expression of IL-2 mRNA in the cells was determined by a polymerase chain reaction (PCR) method.
# Total RNA was reverse transcribed in […] of buffer solution containing 10 mmol/L Tris-HCl (pH 8.3),50 mM KCl, 5 mM MgCl2, 1 mM each dNTP (dATP, dGTP, dTTP and dCTP), 60 U RNase inhibitor (Takara Ltd. Tokyo, Japan), 15 U avian myelobalastosis virus reverse transcriptase (Takara Ltd.) and 150 pmol random 9-mers at 30° C. for 10 min and 42° C. for 30 min. Primer sequences for IL-2 and hypoxanthine-guanine phosphoribosyltransferase (HPRT) were taken from the previous report (44).
# The length in base pairs of the PCR products of IL-2 and HPRT are 351 and 608 bp respectively. […] Fluorescence intensity of the specific bands was visualized by fluorescence image analyzer (FLUOR IMAGER 575®, Molecular Dynamics).
# [4] = test system: calcein-prelabeled lymphocytes in lymphoid tissues; experiment: Lymphocyte homing of calcein-prelabeled lymphocytes; format: in vivo, rat; conditions: oral 1 mg/kg
# Experimental: The lymphocytes prepared from mesenteric lymph nodes and axillary lymph nodes in 5 to 6-week old F344 rats were pre-labeled with calcein-AM (Molecular Probes) at 1 μmol/L on ice for 30 min. After the labeling with calcein-AM, the lymphocytes were washed three times with ice-cold saline. Thereafter, the calcein-prelabeled lymphocytes at 5×10^7 cells were transfused through the tail vein to sex and age-matched F344 rats. FTY720 at 0.1 or 1 mg/kg was orally administered 2.5 hours before the transfusion. After 30 min. of the transfusion, mesenteric lymph nodes, axillary lymph nodes, Peyer's patches, and spleen were removed and the numbers of calcein prelabeled lymphocytes in these tissues were measured using flow cytometer (EPICS-XL). To examine the influence of antibodies against lymphocyte homing receptors, the calcein-prelabeled lymphocytes were treated with 60 μg/ml of either mouse anti-rat CD49d Mab (clone TA-2) (49), hamster anti-rat CD62L Mab (clone HRL3) (50), mouse anti-rat CD11a Mab (clone WT.1) (51), or control Ig at 4° C. for 30 min. Anti-rat lymphocyte-homing receptor Mabs and control Ig were purchased from Seikagaku-kougyou Ltd. or Pharmingen, respectively.
smiles,measurement,setting,value
"CCCCCCCCc1ccc(CCC(N)(CO)CO)cc1.Cl [FTY720, 2-amino-2[2-(4-octylphenyl)ethyl]propane-1,3-diol hydrochloride]",survival of recipient rats,"[1]; 0.3 mg/kg, four out of five rats, without GvHR-associated symptoms",more than 60 days
same,GvHR-associated symptoms,[1]; oral 0.1 mg/kg for 30 days,prevented the development of GvHR-associated symptoms
same,MST of recipient rats,[1]; oral 0.1 mg/kg for 30 days,50.0 days
same,"Number of lymphocytes, Peyer's patches",[2]; 0.1 mg/kg p.o.,551.5 ± 103.5 × 10^4 cells/tissue
same,"Number of lymphocytes, mesenteric lymph nodes",[2]; 0.1 mg/kg p.o.,421.8 ± 27.4 × 10^5 cells/tissue
same,"Number of lymphocytes, peripheral blood",[2]; 0.1 mg/kg p.o.,1071.9 ± 59.3 cells/μL
same,"Number of lymphocytes, spleen",[2]; 0.1 mg/kg p.o.,652.3 ± 31.2 × 10^5 cells/tissue
same,"Number of lymphocytes, Peyer's patches",[2]; 1 mg/kg p.o.,628.8 ± 61.1 × 10^4 cells/tissue
same,"Number of lymphocytes, mesenteric lymph nodes",[2]; 1 mg/kg p.o.,434.3 ± 33.2 × 10^5 cells/tissue
same,"Number of lymphocytes, peripheral blood",[2]; 1 mg/kg p.o.,667.2 ± 199.8 cells/μL
same,"Number of lymphocytes, spleen",[2]; 1 mg/kg p.o.,538.0 ± 74.1 × 10^5 cells/tissue
same,concentration that inhibited IL-2 mRNA expression,[3],> 1000 nM
same,homing of calcein-prelabeled lymphocytes to mesenteric lymph nodes and Peyer's patches,[4],induced lymphocyte homing
